The assay concerns MBL-producing P. aeruginosa clinical isolates. The assay is described as follows: MIC by broth microdilution (CLSI). Format: cell-based, Pseudomonas aeruginosa. Particulars: for MIC: Pseudomonas aeruginosa. How it is done:
The DMSO stock solutions of the test compounds were serially diluted to the desired concentrations in CAMHB. Then, 10 μL of the bacterial suspension (5 × 10^5 colony forming units (CFU)/mL) was combined with 200 μL of DMSO stock solutions of the test compounds in 96-well microtiter plates (1% DMSO, final). After the incubation of the plate at 37 °C for 24 h, bacterial growth was visibly evaluated by monitoring the turbidity of the resulting suspension, and the MICs were determined as the lowest concentrations of the test compounds that inhibited the visible growth of the bacteria.
In general terms: Broth dilution looks for growth in wells or tubes with falling amounts of substance.

≈ marks a conversion by molar mass, not a printed value. Some results are limits rather than exact numbers.

The MIC is the lowest concentration that inhibits growth of the organism. Read a low MIC as a more susceptible organism.

Consider `NCC[C@H](O)C(=O)N[C@@H]1C[C@H](N)[C@@H](O[C@H]2O[C@H](CN)[C@@H](O)[C@H](O)[C@H]2O)[C@H](O)[C@H]1O[C@H]1O[C@H](CO)[C@@H](O)[C@H](N)[C@H]1O` [AMK, amikacin], for which the minimum inhibitory concentration (MIC) runs as follows: (PA-001, blaNDM) above 32 µg/mL; (PA-002, blaIMP) above 32 µg/mL; (PA-007, blaNDM) above 32 µg/mL; (PA-008, blaNDM) above 32 µg/mL; (PA-011, blaNDM) above 32 µg/mL; (PA-012, blaNDM) at most 4 µg/mL. Moreover, the MIC is, setting by setting: (PA-016, blaIMP) above 32 µg/mL; (PA-017, blaNDM) above 32 µg/mL; (PA-019, blaNDM) above 32 µg/mL; (PA-020, blaNDM) above 32 µg/mL; (PA-023, blaNDM) above 32 µg/mL; (PA-025, blaNDM) above 32 µg/mL. Moreover, the MIC was above 32 µg/mL (PA-027, blaIMP); above 32 µg/mL (PA-028, blaNDM); above 32 µg/mL (PA-029, blaIMP); above 32 µg/mL (PA-030, blaIMP); above 32 µg/mL (PA-034, blaNDM); above 32 µg/mL (PA-036, blaNDM). Further, the MIC (PA-038, blaNDM) was above 32 µg/mL; the MIC (PA-039, blaNDM) is at most 4 µg/mL; the minimal inhibitory concentration (MIC) (PA-044, blaNDM) was above 32 µg/mL.
For the compound colistin [CST], the “MIC Value” by setting is: (PA-001, blaNDM) at most 1 µg/mL; (PA-002, blaIMP) at most 1 µg/mL; (PA-007, blaNDM) at most 1 µg/mL; (PA-008, blaNDM) at most 1 µg/mL; (PA-011, blaNDM) at most 1 µg/mL; (PA-012, blaNDM) at most 1 µg/mL. Moreover, the “MIC Value” was at most 1 µg/mL (PA-016, blaIMP); at most 1 µg/mL (PA-017, blaNDM); at most 1 µg/mL (PA-019, blaNDM); at most 1 µg/mL (PA-020, blaNDM); at most 1 µg/mL (PA-023, blaNDM); at most 1 µg/mL (PA-025, blaNDM). Also, the “MIC Value” is at most 1 µg/mL (PA-027, blaIMP); at most 1 µg/mL (PA-028, blaNDM); at most 1 µg/mL (PA-029, blaIMP); at most 1 µg/mL (PA-030, blaIMP); at most 1 µg/mL (PA-034, blaNDM); at most 1 µg/mL (PA-036, blaNDM). Further, the “MIC Value” reads like this: (PA-038, blaNDM) at most 1 µg/mL; (PA-039, blaNDM) at most 1 µg/mL; (PA-044, blaNDM) at most 1 µg/mL.
As for `CNC(C)C1CCC(N)C(OC2C(N)CC(N)C(OC3OCC(C)(O)C(NC)C3O)C2O)O1` (stereo not drawn) [GEN, gentamicin], the minimum inhibitory concentration (MIC) runs as follows: (PA-001, blaNDM) above 8 µg/mL; (PA-002, blaIMP) above 8 µg/mL; (PA-007, blaNDM) above 8 µg/mL; (PA-008, blaNDM) above 8 µg/mL; (PA-011, blaNDM) above 8 µg/mL; (PA-012, blaNDM) 8 µg/mL (≈ 16.8 µM). The MIC was above 8 µg/mL (PA-016, blaIMP); above 8 µg/mL (PA-017, blaNDM); above 8 µg/mL (PA-019, blaNDM); above 8 µg/mL (PA-020, blaNDM); above 8 µg/mL (PA-023, blaNDM); above 8 µg/mL (PA-025, blaNDM). This compound displayed an MIC (PA-027, blaIMP) above 8 µg/mL; an MIC (PA-028, blaNDM) above 8 µg/mL; a minimum inhibitory concentration (MIC) (PA-029, blaIMP) above 8 µg/mL; an MIC (PA-030, blaIMP) above 8 µg/mL; an MIC (PA-034, blaNDM) above 8 µg/mL; a minimum inhibitory concentration (MIC) (PA-036, blaNDM) above 8 µg/mL. In addition, the MIC reads like this: (PA-038, blaNDM) above 8 µg/mL; (PA-039, blaNDM) at most 2 µg/mL; (PA-044, blaNDM) above 8 µg/mL.

The record behind these values is article PMC10892423 (Pharmaceutics, 2024).
